Values of other authors, collected in patent US9961901B2, “Mectin and milbemycin nanoparticle formulations” (priority 2013, dated 2018).
Like-named read-outs stand apart in the source and are kept apart here.

Experiments:
[1] = 20° C.
[2] = not given; remark: listed apart in the source

Solubility, n-heptane ([1]; n-heptane)	Aqueous Photolysis DT50 ([2]; pH 5)	Compound	Solubility, Acetone ([1]; acetone)	Solubility, Ethyl Acetate ([1]; ethyl acetate)	Solubility, Water [1]	Octanol-Water Coefficient Log P	Aqueous Photolysis DT50 ([2]; pH 7)	Solubility, Methanol [1]
–	–	CC[C@H](C)[C@H]1O[C@]2(C=C[C@@H]1C)C[C@@H]1C[C@@H](C/C=C(\C)[C@@H](O[C@H]3C[C@H](OC)[C@@H](O[C@H]4C[C@H](OC)[C@@H](O)[C@H](C)O4)[C@H](C)O3)[C@@H](C)/C=C/C=C3\CO[C@@H]4[C@H](O)C(C)=C[C@@H](C(=O)O1)[C@]34O)O2 [abamectin]	Acetone: 72,000 mg/L	Ethyl Acetate: 160,000 mg/L	Water: 1.21 mg/L	Log P: 4.4	DT50: 1.5 d at pH 7	–
–	–	emamectin	–	–	Water: 24 mg/L	Log P: 5.0	DT50: 32 d at pH 7	Methanol: 2700 g/L
n-heptane: 5,060 mg/L	DT50: 3 d at pH 5 (aqueous	milbemycin	–	–	Water 3.6 mg/L	Log P: 6.8	–	Methanol: 251,000 mg/L
